Experimental data from patent US20220380371A1, “MLL1 INHIBITORS AND ANTI-CANCER AGENTS” (NOVARTIS AG, priority 2019, published 2022).

Legend:
[1] = target: wild type MLL1 four-member complex (MLL1-4C) (Homo sapiens, UniProt Q03164); assay: MLL1 LC-MS Assay; assay type: biochemical; settings: read-out: LCMS
How it was run: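 Compound pre-incubated 20 min with MLL1-4C and SAM, then H3[1-21]-biotin (H3K4me0) substrate added; final 30 nM enzyme, 2.5 μM SAM, 10 μM peptide in Tris pH 8.0 with MgCl2, DTT, Tween 20, BSA. After 120 min at rt, TFA-quenched SAH quantified by LC-MS/MS with d4-SAH; IC50 from dose-response fit.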

[2] = target: wild type MLL1 five-member complex (MLL1-5C) (Homo sapiens, UniProt Q03164); assay: MLL1 Flashplate Assay; assay type: biochemical; settings: read-out: MLL1 flash plate
Protocol: MLL1 Flashplate Assay To assess the compound potency in MLL1 Flashplate assay, compounds were serially diluted 3-fold in DMSO to obtain a total of twelve concentrations. Then the test compounds at each concentration (250 nL of each) were transferred by Mosquito into Corning #3675 384-well plate. Solutions (15 μL) of 4.2 nM wild type MLL1 five-member complex (MLL1-5C) in the assay buffer (20 mM Tris-HCl, pH 8.0, 0.01% Tween 20, 1 mM DTT, 0.01% BSA) were added to the wells. A 10 μL solution of 2.5 μM of the peptide substrate H3K4me0 (histone H3[1-21]-Biotin) and 1.25 μM ^3H-SAM in the reaction buffer was then added to initiate each reaction. The final components in the reaction solution include 2.5 nM MLL1-5C, 0.5 μM ^3H-SAM, and 1 μM H3K4me0 with varying concentration of the compounds. A positive control consisted of 2.5 nM MLL1-5C, 0.5 μM ^3H-SAM, and 1 μM substrate in the absence of the test compound, and a negative control consisted of 0.5 μM ^3H-SAM, and 1 μM substrate only. Each reaction was incubated at rt for 90 min, then stopped by addition of 5 μL per of quench solution (0.5 mM SAM in assay buffer). 25 μL of each reaction solution was transferred to FlashPlate streptavidin 384-well microplate (PerkinElmer). After at least 1 h incubation at rt, the wells were washed three times with 0.1% Tween-20 in dH2O using the BioTek plate washer. The plates were then read in MicroBeta (PerkinElmer). The radioactive readouts were then normalized based on the values coming from the positive and negative controls to give percent enzyme activities. The data were then fit to a dose response equation using the program Helios to get the IC50 values of the test compounds.

[3] = system: H3K4me3 in MV4-11 cells; assay: MV4-11 H3K4me3 Cellular ELISA Assay; assay type: cell-based; settings: Homo sapiens, MV4-11, 48 h
How it was run: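 MV4-11 cells were treated for 48 h with 12-point 1:3 compound dilutions (from 10 mM stock), then histones were acid-extracted with 0.5M HCl and neutralized. H3K4me3 and total H3 were measured by HRP chemiluminescent ELISA, and inhibition versus DMSO after H3 normalization was curve-fitted for IC50.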

[4] = system: MV4-11 cells; assay: MV4-11 6-Day Cell Growth CTG (CellTiter-Glo) Assay; assay type: cell-based; settings: Homo sapiens, MV4-11, 144 h, MV4-11 cell growth CellTiter-Glo, 6 days
How it was run: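 MV4-11 AML cells (RPMI 1640, 10% FBS) seeded at 300 cells/well and exposed for 6 days at 37 °C to a 12-point, 1:3 compound series starting at 50 μM final. Viable cells read by CellTiter-Glo luminescence; percent inhibition versus DMSO-only wells fitted to dose-response curves for IC50.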

Row | Structure (SMILES) | IC50 [1] | IC50 [2] | IC50 [3] | IC50 [4]
1 | Nc1ncnc2c1ncn2Cc1c(N2CC[C@](N)(C(=O)NC3CC3)C2)ccc(F)c1CN1CCOCC1 [Example 65] | < 50 nM | > 100 nM | < 1900 nM | < 2000 nM
2 | Nc1ncnc2c1ncn2Cc1c(N2CC[C@](N)(C(=O)NC3CC3)C2)ccc(F)c1CN1CCC1 [Example 70] | 50 to 100 nM | > 100 nM | < 1900 nM | < 2000 nM
3 | Nc1ncnc2c1ncn2Cc1c(-c2cccc(C3CCCCC3)c2)cc(Cl)cc1N1CC[C@](N)(c2nn[nH]n2)C1 [Example 84] | 50 to 100 nM | < 60 nM | < 1900 nM | < 2000 nM
4 | Nc1ncnc2c1ncn2Cc1c(N2CC[C@](N)(c3nc[nH]n3)C2)ccc(Cl)c1Cl [Example 85] | < 50 nM | < 60 nM | < 1900 nM | < 2000 nM
5 | Nc1ncnc2c1ncn2Cc1c(N2CC[C@](N)(C(=O)NC3CC3)C2)ccc(Cl)c1COC(F)F [Example 86] | < 50 nM | < 60 nM | < 1900 nM | < 2000 nM
6 | CN(C)Cc1c(Cl)c(Cl)cc(N2CC[C@](N)(C(=O)NC3CC3)C2)c1Cn1cnc2c(N)ncnc21 [Example 88, (R)-3-amino-1-(2-((6-amino-9H-purin-9-yl)methyl)-4,5-dichloro-3-((dimethylamino)methyl)phenyl)-N-cyclopropylpyrrolidine-3-carboxamide] | < 50 nM | < 60 nM | < 1900 nM | < 2000 nM
7 | CCc1cc(-c2cccs2)cc(N2CC[C@](N)(C(=O)NC3CC3)C2)c1Cn1cnc2c(N)ncnc21 [Example 93] | < 50 nM | < 60 nM | < 1900 nM | < 2000 nM
8 | CCc1cc(-c2cnn(C)c2)cc(N2CC[C@](N)(C(=O)NC3CC3)C2)c1Cn1cnc2c(N)ncnc21 [Example 96] | < 50 nM | < 60 nM | 1900 to 3000 nM | > 3000 nM
9 | CCc1c(C#N)c(Cl)cc(N2CC[C@](N)(C(=O)NC3CC3)C2)c1Cn1cnc2c(N)ncnc21 [Example 101, (R)-3-amino-1-(2-((6-amino-9H-purin-9-yl)methyl)-5-chloro-4-cyano-3-ethylphenyl)-N-cyclopropylpyrrolidine-3-carboxamide] | < 50 nM | < 60 nM | < 1900 nM | 2000 to 3000 nM

More lines, now with the values ahead:

Row | IC50 [1] | IC50 [2] | IC50 [3] | IC50 [4] | Structure (SMILES)
10 | < 50 nM | < 60 nM | < 1900 nM | < 2000 nM | CCc1cc(-c2ccccn2)cc(N2CC[C@](N)(C(=O)NC3CC3)C2)c1Cn1cnc2c(N)ncnc21 [Example 99, (R)-3-amino-1-(2-((6-amino-9H-purin-9-yl)methyl)-3-ethyl-5-(pyridin-2-yl)phenyl)-N-cyclopropylpyrrolidine-3-carboxamide]
11 | < 50 nM | < 60 nM | < 1900 nM | < 2000 nM | Nc1ncnc2c1ncn2Cc1c(N2CC[C@](N)(C(=O)NC3CC3)C2)cc(Cl)c(F)c1CN1CCOCC1 [Example 102, (R)-3-amino-1-(2-((6-amino-9H-purin-9-yl)methyl)-5-chloro-4-fluoro-3-(morpholinomethyl)phenyl)-N-cyclopropylpyrrolidine-3-carboxamide]
12 | < 50 nM | < 60 nM | < 1900 nM | < 2000 nM | Nc1ncnc2c1ncn2Cc1c(N2CC[C@@](N)(CO)C2)ccc2ccccc12 [Example 106]
13 | < 50 nM | < 60 nM | < 1900 nM | < 2000 nM | Nc1ncnc2c1ncn2Cc1c(Br)c(Cl)c2c(c1N1CC[C@](N)(C(=O)NC3CC3)C1)OCC2 [Example 110]
14 | 50 to 100 nM | < 60 nM | < 1900 nM | < 2000 nM | Nc1ncnc2c1ncn2Cc1c(N2CC[C@](N)(C(=O)NC3CC3)C2)ccc2ccoc12 [Example 112]
